In ChEMBL document CHEMBL1139623, “4,5-Disubstituted cis-pyrrolidinones as inhibitors of type II 17beta-hydroxysteroid dehydrogenase. Part 2. SAR” (Bioorg Med Chem Lett, 2005):

Molecular target: T1, 17-beta-hydroxysteroid dehydrogenase type 2 (Homo sapiens, UniProt P37059)
T1 sequence (P37059 whole entry): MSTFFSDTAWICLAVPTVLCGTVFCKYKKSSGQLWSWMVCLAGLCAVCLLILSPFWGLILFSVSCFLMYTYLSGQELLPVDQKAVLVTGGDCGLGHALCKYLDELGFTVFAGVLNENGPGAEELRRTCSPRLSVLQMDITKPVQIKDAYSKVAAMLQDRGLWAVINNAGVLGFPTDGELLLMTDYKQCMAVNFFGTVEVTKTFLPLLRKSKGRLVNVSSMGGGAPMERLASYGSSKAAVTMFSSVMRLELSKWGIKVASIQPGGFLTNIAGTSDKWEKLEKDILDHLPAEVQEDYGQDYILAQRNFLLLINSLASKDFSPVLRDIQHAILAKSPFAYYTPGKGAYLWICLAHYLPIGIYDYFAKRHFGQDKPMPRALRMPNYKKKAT
Assay: Inhibitory concentration against 17 beta hydroxysteroid dehydrogenase type 2 (type II 17-beta-HSD II)

| Structure (SMILES) | IC50 |
| --- | --- |
| CN1C(=O)C[C@H](c2ccccc2)[C@@H]1[C@@H](O)C#Cc1ccccc1F | 320 nM |
| CN1C(=O)C[C@H](c2ccccc2)[C@@H]1[C@@H](O)c1cccc(Cl)c1 | 700 nM |
| CN1C(=O)C[C@H](c2ccccc2)[C@@H]1[C@@H](O)C#Cc1cccc(O)c1 | 1760 nM |
| CN1C(=O)C[C@H](c2ccccc2)[C@@H]1[C@@H](O)CCc1ccccc1 | 1830 nM |
| CN1C(=O)C[C@H](c2ccccc2)[C@@H]1[C@@H](O)c1cccs1 | 400 nM |
| CN1C(=O)C[C@H](c2ccccc2)[C@@H]1[C@H](O)c1cccc(Cl)c1 | > 10000 nM |
| CN1C(=O)C[C@H](c2ccccc2)[C@@H]1[C@@H](O)c1cc2ccccc2[nH]1 | > 10000 nM |
| CN1C(=O)C[C@H](c2ccccc2)[C@@H]1[C@@H](O)/C=C/c1ccc(F)cc1 | 1400 nM |
| CN1C(=O)C[C@H](c2ccccc2)[C@@H]1[C@@H](O)c1cccc(C(F)(F)F)c1 | 880 nM |
| CN1C(=O)C[C@H](c2ccccc2)[C@@H]1[C@@H](O)c1cccc(-c2ccccc2)c1 | 420 nM |
| CN1C(=O)C[C@H](c2ccccc2)[C@@H]1[C@@H](O)c1ccccc1 | 5000 nM |
| CN1C(=O)C[C@H](c2ccccc2)[C@@H]1[C@@H](O)c1cccc(-c2ccc(F)cc2)c1 | 2780 nM |
| CN1C(=O)C[C@H](c2ccccc2)[C@@H]1[C@@H](O)C(C)(C)C | > 10000 nM |
| O=C1C[C@H](c2ccccc2)[C@H]([C@@H](O)c2cccs2)N1 | > 10000 nM |
| CN1C(=O)C[C@H](c2ccccc2)[C@@H]1[C@@H](O)Cc1cccc(Cl)c1 | 2390 nM |
| CN1C(=O)C[C@H](c2ccccc2)[C@@H]1[C@@H](O)C#Cc1ccc(F)cc1 | 480 nM |
| COc1ccc([C@H](O)[C@H]2[C@@H](c3ccccc3)CC(=O)N2C)cc1 | 1230 nM |
| CN1CC[C@H](c2ccccc2)[C@@H]1[C@@H](O)c1cccs1 | > 10000 nM |
| CN1C(=O)C[C@H](c2ccccc2)[C@@H]1[C@@H](O)CCc1ccc(F)cc1 | 1530 nM |
| CO[C@@H](c1cccs1)[C@H]1[C@@H](c2ccccc2)CC(=O)N1C | 3910 nM |
| CN(C)c1ccc([C@H](O)[C@H]2[C@@H](c3ccccc3)CC(=O)N2C)cc1 | 1650 nM |

| Structure (SMILES) | IC50 |
| --- | --- |
| CN1C(=O)C[C@H](c2ccccc2)[C@@H]1[C@@H](O)c1ccc2c(c1)OCO2 | 960 nM |
| CN1C(=O)C[C@H](c2ccccc2)[C@@H]1[C@@H](O)C#Cc1ccccc1 | 430 nM |
| CN1C(=O)C[C@H](c2ccc(N)cc2)[C@@H]1[C@@H](O)c1ccc(-c2ccccc2)s1 | 190 nM |
| CN1C(=O)C[C@H](c2ccccc2)[C@@H]1[C@@H](O)c1ccc(-c2ccccc2)s1 | 100 nM |
| Cc1ccc([C@H](O)[C@H]2[C@@H](c3ccccc3)CC(=O)N2C)cc1 | 1820 nM |
| COc1cccc(C#C[C@H](O)[C@H]2[C@@H](c3ccccc3)CC(=O)N2C)c1 | 1090 nM |
| CN1C(=O)C[C@H](c2ccc(NS(C)(=O)=O)cc2)[C@@H]1[C@@H](O)c1ccc(-c2ccccc2)s1 | > 10000 nM |
| Cc1ccc([C@H](O)[C@H]2[C@@H](c3ccccc3)CC(=O)N2C)s1 | 560 nM |
| CN1C(=O)C[C@H](c2ccccc2)[C@@H]1[C@@H](O)c1ccc(-c2ccc(F)cc2)cc1 | 1260 nM |
| COc1cccc([C@H](O)[C@H]2[C@@H](c3ccccc3)CC(=O)N2C)c1 | 810 nM |
| CN1C(=S)C[C@H](c2ccccc2)[C@@H]1[C@@H](O)c1cccs1 | > 10000 nM |
| Cc1ccc(C#C[C@H](O)[C@H]2[C@@H](c3ccccc3)CC(=O)N2C)cc1 | 800 nM |
| CN1C(=O)C[C@H](c2ccccc2)[C@@H]1[C@@H](O)c1ccc(-c2ccccc2)o1 | 3240 nM |
| CN1C(=O)C[C@H](c2ccccc2)[C@@H]1[C@@H](O)C#Cc1ccccn1 | 1500 nM |
| CN1C(=O)C[C@H](c2ccccc2)[C@@H]1[C@@H](O)C#Cc1cccc(N)c1 | 370 nM |
| CN1C(=O)C[C@H](c2ccccc2)[C@@H]1[C@@H](O)c1ccc(-c2ccc(O)cc2)cc1 | 1130 nM |
| CC(=O)O[C@@H](c1cccs1)[C@H]1[C@@H](c2ccccc2)CC(=O)N1C | 1370 nM |
| CN1C(=O)C[C@H](c2ccccc2)[C@@H]1C(=O)c1cccc(Cl)c1 | > 10000 nM |
| CN(C)c1ccc([C@H]2CC(=O)N(C)[C@H]2[C@@H](O)c2ccc(-c3ccccc3)s2)cc1 | 2430 nM |
| CN1C(=O)C[C@H](c2ccccc2)[C@@H]1[C@@H](OCCO)c1cccs1 | > 10000 nM |
| CN1C(=O)C[C@H](c2ccccc2)[C@@H]1C(=O)c1cccs1 | > 10000 nM |

More lines, now with the values ahead:

| IC50 | Structure (SMILES) |
| --- | --- |
| 900 nM | CO[C@@H](c1cccc(Cl)c1)[C@H]1[C@@H](c2ccccc2)CC(=O)N1C |
| 1200 nM | CN1C(=O)C[C@H](c2ccccc2)[C@@H]1[C@@H](O)c1ccc(Br)s1 |
| 3180 nM | CN1C(=O)C[C@H](c2ccccc2)[C@@H]1[C@@H](O)c1ccco1 |
| 1670 nM | CNc1ccc([C@H]2CC(=O)N(C)[C@H]2[C@@H](O)c2ccc(-c3ccccc3)s2)cc1 |
| 2660 nM | CN1C(=O)C[C@H](c2ccccc2)[C@@H]1[C@@H](O)c1csc2ccccc12 |
| 2980 nM | CN1C(=O)C[C@H](c2ccccc2)[C@@H]1C(F)c1cccs1 (some centres not stated) |
| 1270 nM | CN1C(=O)C[C@H](c2ccccc2)[C@@H]1[C@@H](O)c1ccc(Br)o1 |
| 890 nM | COc1ccc([C@H]2CC(=O)N(C)[C@H]2[C@@H](O)c2ccc(-c3ccccc3)s2)cc1 |
| 1520 nM | Cc1cccc([C@H](O)[C@H]2[C@@H](c3ccccc3)CC(=O)N2C)c1 |
| 2180 nM | CN1C(=O)C[C@H](c2ccccc2)[C@@H]1Cc1cccc(Cl)c1 |
| 220 nM | CN1C(=O)C[C@H](c2ccc(O)cc2)[C@@H]1[C@@H](O)c1ccc(-c2ccccc2)s1 |
| > 10000 nM | CC(=O)Nc1ccc([C@H]2CC(=O)N(C)[C@H]2[C@@H](O)c2ccc(-c3ccccc3)s2)cc1 |
| 1960 nM | CN1C(=O)C[C@H](c2ccccc2)[C@@H]1[C@@H](O)c1ccc(Cl)cc1 |
| 590 nM | CN1C(=O)C[C@H](c2ccccc2)[C@@H]1[C@@H](O)c1cc2ccccc2s1 |
| 440 nM | CN1C(=O)C[C@H](c2ccccc2)[C@@H]1[C@@H](O)c1ccc(Cl)c(Cl)c1 |
| 4180 nM | O=C1C[C@H](c2ccccc2)[C@H]([C@@H](O)c2cccs2)N1Cc1ccccc1 |
| 300 nM | CN1C(=O)C[C@H](c2ccccc2)[C@@H]1[C@@H](O)C#Cc1ccccc1Cl |
| 1160 nM | CN1C(=O)C[C@H](c2ccccc2)[C@@H]1[C@@H](O)c1coc2ccccc12 |
| > 10000 nM | CN1C(=O)C[C@H](c2ccc([N+](=O)[O-])cc2)[C@@H]1[C@@H](O)c1ccc(-c2ccccc2)s1 |
| 1020 nM | CN1C(=O)C[C@H](c2ccccc2)[C@@H]1[C@@H](O)c1ccc(-c2ccccc2)cc1 |
